From US20080242698A1, “Organic Compounds” (priority 2005, published 2008) come the findings set out here.

For the molecule `CC(NC1Cc2ccccc2C1)C(=O)N(c1ccccc1)c1ccccc1.Cl` (racemic), the melting point (commonly the temperature of the solid-liquid transition) was in the range of 208 to 210 °C.

Consider `Cl.O=C(CNCC(c1ccccc1)c1ccccc1)n1c2ccccc2c2ccccc21`, for which the melting point was 250 °C.

Turning to `Cl.O=C(CNC(c1ccccc1)c1ccccc1)N(Cc1ccccc1)c1ccccc1`, the melting point lay within 181 to 182 °C.

`CN(C(=O)CNC(c1ccccc1)c1ccccc1)c1ccccc1` [Example 24, 2-(Benzhydryl-amino)-N-methyl-N-phenyl-acetamide] came in with a melting point of 115 to 116 °C.

Regarding `CC(NCC(=O)N(c1ccccc1)c1ccccc1)c1ccccc1.Cl` (racemic), the melting point lay in the range of 232 to 236 °C.

`Cl.O=C(CNC(c1ccccc1)c1ccccc1)Nc1ccccc1-c1ccccc1` came in with a melting point of 151 to 158 °C.

Consider `CC(C)N(C(=O)CNCc1ccc(Cl)c(Cl)c1)c1ccccc1.Cl`, for which the melting point fell in the range of 245 to 250 °C.

Take `CC(C)N(C(=O)CNCc1cccc2ccccc12)c1ccccc1.Cl`: the melting point lay in the range of 224 to 226 °C.

`Cl.O=C(CNC(c1ccccc1)c1ccccc1)NCCC(c1ccccc1)c1ccccc1`: the melting point was in the range of 177.5 to 178.1 °C.

`CC(NC(c1ccccc1)c1ccccc1)C(=O)NCCC(c1ccccc1)c1ccccc1.Cl` (racemic) had a melting point of 210.3 to 212 °C.

`COc1cc(CNC(C(=O)NCc2ccccc2)c2ccccc2)cc(OC)c1` (racemic) [Example 112, rac-N-Benzyl-2-(3,5-dimethoxy-benzylamino)-2-phenyl-acetamide]: the melting point fell in the range of 107 to 108 °C.

Take `CC1CCc2ccccc2N1C(=O)CNCC(c1ccccc1)c1ccccc1.Cl` (racemic): the melting point lay in the range of 212 to 215 °C.

As to `CC(CN(C)C)N1c2ccccc2CCc2ccccc21.Cl` (racemic), the melting point was in the range of 172 to 173 °C.

For the molecule `Cl.O=C(CNC(c1ccccc1)c1ccccc1)Nc1cccc2ccccc12`, the melting point fell in the range of 132 to 134 °C.

The molecule `Cl.O=C(CNC(c1ccccc1)c1ccccc1)N1CCCc2ccccc21` returned a melting point of 191 to 194 °C.

Consider `CC(CNCC(=O)N1CCCc2ccccc21)(c1ccccc1)c1ccccc1.Cl`, for which the melting point is 210 to 212 °C.

Molecule `COc1ccc(CNC(C(=O)NCc2ccccc2)c2ccccc2)cc1.O=C(O)/C=C/C(=O)O` (racemic) returned a melting point of 153 to 155 °C.

On to `Cl.N[C@@H](C(=O)NCC(=O)N1c2ccccc2C=Cc2ccccc21)c1ccccc1`, for which the melting point fell in the range of 179 to 185 °C.

Molecule `Cl.O=C(CNC1CCCc2ccccc21)N1c2ccccc2C=Cc2ccccc21` (stereo not drawn) came in with a melting point of 245 to 246 °C.

The molecule `Cl.O=C(CN1CCc2ccccc2C1)N1CCCc2ccccc21` yielded a melting point of 201 to 203 °C.

For the molecule `Cl.O=C(CNCCC(c1ccccc1)c1ccccc1)N(c1ccccc1)c1ccccc1`, the melting point fell in the range of 227 to 230 °C.

For `O=C(NCc1ccccc1)C(c1ccccc1)N(Cc1ccccc1)Cc1ccccc1` (racemic) [Example 106, rac-N-Benzyl-2-dibenzylamino-2-phenyl-acetamide], the melting point lay in the range of 109 to 119.5 °C.

Turning to `CS(=O)(=O)O.CS(=O)(=O)O.Clc1ccc(C(NCCNC(c2ccccc2)c2ccc(Cl)cc2)c2ccccc2)cc1` (stereo not drawn), the melting point lay within 233 to 235 °C.

With `Cl.O=C(CNC(c1ccccc1)c1ccccc1)NCc1ccccc1`, the melting point lay within 161.9 to 162.9 °C.

In turn, `Cl.O=C(CNCC(c1ccccc1)c1ccccc1)N1CCCc2ccccc21` returned a melting point of 174 to 178 °C.

Molecule `Cl.O=C(CNCc1ccccc1)N(c1ccccc1)c1ccccc1` came in with a melting point of 234 to 237 °C.

Turning to `Cl.O=C(NCc1ccccc1)C(NC(c1ccccc1)c1ccccc1)c1ccccc1` (racemic), the melting point is 218.4 to 219.2 °C (dec.).

The molecule `O=C(CNC1c2ccccc2-c2ccccc21)N1CCCc2ccccc21` [Example 31, 1-(3,4-Dihydro-2H-quinolin-1-yl)-2-(9H-fluoren-9-ylamino)-ethanone] came in with a melting point of 82 to 84 °C.

Take `Cc1cccc2c1N(C(=O)CNCC(c1ccccc1)c1ccccc1)CCC2.Cl`: the melting point lay within 82 to 95 °C.

`Cl.N[C@H](C(=O)NCC(=O)N1c2ccccc2C=Cc2ccccc21)c1ccccc1` showed a melting point of 192 to 233 °C.

The molecule `Cl.O=C(CNCC(c1ccccc1)c1ccccc1)N1c2ccccc2Oc2ccccc21` displayed a melting point of 215 to 216 °C.

The molecule `Cl.O=C(CNCc1cccc2ccccc12)N(c1ccccc1)c1ccccc1` came in with a melting point of 233 to 235 °C.

`Cl.O=C(CNCCc1ccccc1)N1c2ccccc2C=Cc2ccccc21` registered a melting point of 243 to 259 °C.

For the molecule `Cl.NC(C(=O)NCC(=O)N(c1ccccc1)c1ccccc1)c1ccccc1` (stereo not drawn), the melting point was 177 to 185 °C (dec.).

In turn, `Cc1cccc2c1N(C(=O)CNC(c1ccccc1)c1ccccc1)CCC2.Cl` gave a melting point of 128 to 136 °C.

Turning to `CC(C)N(C(=O)CNC(c1ccccc1)c1ccccc1)c1ccccc1.Cl`, the melting point lay in the range of 241 to 243 °C.

The molecule `CC(NCC(c1ccccc1)c1ccccc1)C(=O)N(c1ccccc1)c1ccccc1.Cl` (racemic) returned a melting point of 122 to 125 °C.

For the molecule `Cl.O=C(CNCC(c1ccccc1)c1ccccc1)N(c1ccccc1)c1ccccc1`, the melting point lay within 232 to 234 °C.

Turning to `Cl.O=C(CNCC(c1ccccc1)c1ccccc1)N1CCc2ccccc2C1`, the melting point was in the range of 72 to 78 °C.

Regarding `O=C(NCC(c1ccccc1)c1ccccc1)C(Cc1ccccc1)NCc1ccccn1` (racemic) [Example 136, rac-N-(2,2-Diphenyl-ethyl)-3-phenyl-2-[(pyridin-2-ylmethyl)-amino]-propion-amide], the melting point was 68 to 70 °C.

In the case of `O=C(NC(C(=O)NCc1ccccc1)c1ccccc1)c1ccc2cc(C(=O)O)[nH]c2c1` (stereo not drawn) [Example 117, 6-[(Benzylcarbamoyl-phenyl-methyl)-carbamoyl]-1H-indole-2-carboxylic acid], the melting point was 258 to 260 °C.

With `CN(C(=O)CNCC(c1ccccc1)c1ccccc1)c1ccccc1.Cl`, the melting point is 221 to 223 °C.

In turn, `Cl.O=C(CNCc1ccccc1Cl)N(Cc1ccccc1)c1ccccc1` came in with a melting point of 190 to 192 °C.

The molecule `Cl.O=C(NCc1cccc(Cl)c1)C(NC(c1ccccc1)c1ccccc1)c1ccccc1` (racemic) showed a melting point of 215 to 216 °C.

Consider `Cl.O=C(CNCC(c1ccccc1)c1ccccc1)N(Cc1ccccc1)c1ccccc1`, for which the melting point lay in the range of 188 to 190 °C.

With `CN(C(=O)CNCc1ccc(Cl)c(Cl)c1)c1ccccc1.Cl`, the melting point fell in the range of 221 to 224 °C.

In the case of `CN(C)c1ccc(CNC(C(=O)NCc2ccccc2)c2ccccc2)cc1.O=C(O)/C=C/C(=O)O` (racemic), the melting point was 159 to 161 °C.

`CC(C)N(C(=O)CNCC(c1ccccc1)c1ccccc1)c1ccccc1.Cl` registered a melting point of 240 to 243 °C.

Molecule `O=C(CN1CCc2ccccc2C1)N(c1ccccc1)c1ccccc1` [Example 14, 2-(3,4-Dihydro-1H-isoquinolin-2-yl)-N,N-diphenyl-acetamide] came in with a melting point of 202 to 204 °C.

In turn, `O=C(CNC(c1ccccc1)c1ccccc1)N(c1ccccc1)c1ccccc1` [Example 15, 2-(Benzhydryl-amino)-N,N-diphenyl-acetamide] showed a melting point of 122 to 123 °C.

`Cl.O=C(CNC1CCc2ccccc2C1)N(c1ccccc1)c1ccccc1` (stereo not drawn) gave a melting point of 274 to 295 °C.

`O=C(CNCc1ccccc1Cl)NC(c1ccccc1)c1ccccc1` [Example 5, N-Benzhydryl-2-(2-chloro-benzylamino)-acetamide] returned a melting point of 98 to 99 °C.

For `Cl.O=C(CNCc1ccc(Cl)c(Cl)c1)N1c2ccccc2C=Cc2ccccc21`, the melting point is 244 to 249 °C.

`Cl.O=C(CNCc1ccccc1Cl)N(c1ccccc1)c1ccccc1` gave a melting point of 213 to 214.5 °C.
